Active and inactive are the calls of the source. No cut-off for these calls is given here.
How the values were obtained:
Mycobacterium avium [1] = assay: Antimycobacterial activity against Mycobacterium avium 2447 Smt infected in BALB/c mice BMDM assessed as bacterial growth inhibition at 10 uM after 5 days; type: functional, organism-based
Mycobacterium avium [2] = assay: Antimycobacterial activity against Mycobacterium avium 2447 Smt infected in BALB/c mice BMDM assessed as bacterial growth inhibition upto 20 uM after 5 days; type: functional, organism-based

In the case of Cc1cc(O)c(O)c(CNC(=O)CCC(CCC(=O)NCc2c(O)c(O)cc(C)[n+]2C)(CCC(=O)NCc2c(O)c(O)cc(C)[n+]2C)NC(=O)CCNC(=S)Nc2ccc(C(=O)O)c(-c3c4ccc(=[N+](C)C)cc-4oc4cc(N(C)C)ccc34)c2)[n+]1C, the inhibition (Mycobacterium avium [1]) is reported as “Active” and the inhibition (Mycobacterium avium [2]) is reported as “Active”.

— ChEMBL document CHEMBL3779895, “Antimycobacterial activity of rhodamine 3,4-HPO iron chelators against Mycobacterium avium: analysis of the contribution of functional groups and of chelator's combination with ethambutol” (Medchemcomm, 2015)
